Test system: P12-Ichikawa
Test: cell viability relative to DMSO control; higher = less cytotoxic
Settings: 48 h
Procedure, shortened: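 In 1536-well plates, 5 μl of leukemia cells were seeded per well: 500 cells/well for NOMO1 or SEM and 1000 cells/well for P12-Ichikawa. Each line had first been adapted for at least four passages in each medium. Library compounds in DMSO were pin-dosed at 11 threefold concentrations between 47 μM and 0.79 nM, and CellTiter-Glo One luminescence was read after 48 h at 37°C. Viability is a per-plate percentage relative to DMSO wells, with cell-free wells as background.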

[1] = HPLM + 10% dialyzed FBS, 0.000781 µM
[2] = HPLM + 10% dialyzed FBS, 0.00234 µM
[3] = HPLM + 10% dialyzed FBS, 0.00702 µM
[4] = HPLM + 10% dialyzed FBS, 0.0211 µM
[5] = HPLM + 10% dialyzed FBS, 0.0632 µM
[6] = HPLM + 10% dialyzed FBS, 0.19 µM
[7] = HPLM + 10% dialyzed FBS, 0.569 µM
[8] = HPLM + 10% dialyzed FBS, 1.71 µM
[9] = HPLM + 10% dialyzed FBS, 5.12 µM
[10] = HPLM + 10% dialyzed FBS, 15.4 µM
[11] = HPLM + 10% dialyzed FBS, 46.1 µM
[12] = RPMI 5 mM glucose + 10% FBS, 0.000781 µM
[13] = RPMI 5 mM glucose + 10% FBS, 0.00234 µM
[14] = RPMI 5 mM glucose + 10% FBS, 0.00702 µM
[15] = RPMI 5 mM glucose + 10% FBS, 0.0211 µM
[16] = RPMI 5 mM glucose + 10% FBS, 0.0632 µM
[17] = RPMI 5 mM glucose + 10% FBS, 0.19 µM
[18] = RPMI 5 mM glucose + 10% FBS, 0.569 µM
[19] = RPMI 5 mM glucose + 10% FBS, 1.71 µM
[20] = RPMI 5 mM glucose + 10% FBS, 5.12 µM
[21] = RPMI 5 mM glucose + 10% FBS, 15.4 µM
[22] = RPMI 5 mM glucose + 10% FBS, 46.1 µM
[23] = RPMI 5 mM glucose + 10% dialyzed FBS, 0.000781 µM
[24] = RPMI 5 mM glucose + 10% dialyzed FBS, 0.00234 µM
[25] = RPMI 5 mM glucose + 10% dialyzed FBS, 0.00702 µM
[26] = RPMI 5 mM glucose + 10% dialyzed FBS, 0.0211 µM
[27] = RPMI 5 mM glucose + 10% dialyzed FBS, 0.0632 µM
[28] = RPMI 5 mM glucose + 10% dialyzed FBS, 0.19 µM
[29] = RPMI 5 mM glucose + 10% dialyzed FBS, 0.569 µM
[30] = RPMI 5 mM glucose + 10% dialyzed FBS, 1.71 µM
[31] = RPMI 5 mM glucose + 10% dialyzed FBS, 5.12 µM
[32] = RPMI 5 mM glucose + 10% dialyzed FBS, 15.4 µM
[33] = RPMI 5 mM glucose + 10% dialyzed FBS, 46.1 µM

| Structure (SMILES) | cell viability [1] [%] | cell viability [2] [%] | cell viability [3] [%] | cell viability [4] [%] | cell viability [5] [%] | cell viability [6] [%] | cell viability [7] [%] | cell viability [8] [%] | cell viability [9] [%] | cell viability [10] [%] | cell viability [11] [%] | cell viability [12] [%] | cell viability [13] [%] | cell viability [14] [%] | cell viability [15] [%] | cell viability [16] [%] | cell viability [17] [%] | cell viability [18] [%] | cell viability [19] [%] | cell viability [20] [%] | cell viability [21] [%] | cell viability [22] [%] | cell viability [23] [%] | cell viability [24] [%] | cell viability [25] [%] | cell viability [26] [%] | cell viability [27] [%] | cell viability [28] [%] | cell viability [29] [%] | cell viability [30] [%] | cell viability [31] [%] | cell viability [32] [%] | cell viability [33] [%] |
| --- | --- | --- | --- | --- | --- | --- | --- | --- | --- | --- | --- | --- | --- | --- | --- | --- | --- | --- | --- | --- | --- | --- | --- | --- | --- | --- | --- | --- | --- | --- | --- | --- | --- |
| C#C[C@]1(O)CC[C@H]2[C@@H]3CCc4cc(O)ccc4[C@H]3CC[C@@]21C | 102 | 98.3 | 95.9 | 97.4 | 95.7 | 102 | 89.5 | 97.3 | 95.8 | 75.3 | 47.2 | 98.3 | 95.6 | 89.4 | 93.6 | 92.3 | 94.3 | 96.7 | 83.7 | 89.1 | 67.7 | 42.6 | 87.5 | 86.7 | 88.9 | 92.3 | 93.3 | 92.4 | 95.6 | 85.6 | 81.8 | 72.5 | 58.3 |
| C[N]1C=C(C2=C1C=CC=C2)\C3=C(\C(=O)NC3=O)C4=C5CC(CN)CC[N]5C6=C4C=CC=C6 (centres undefined) | 103 | 105 | 106 | 113 | 98 | 116 | 110 | 108 | 106 | 84.2 | 60.3 | 97.2 | 108 | 101 | 111 | 90.5 | 117 | 120 | 115 | 94.6 | 66.2 | 45 | 119 | 116 | 119 | 113 | 113 | 129 | 129 | 119 | 109 | 83.4 | 45.7 |
| CC(N)C12CC3CC(CC(C3)C1)C2 (centres undefined) | 105 | 108 | 111 | 117 | 124 | 109 | 111 | 114 | 110 | 99.1 | 8.72 | 103 | 113 | 101 |  | 123 | 118 | 112 | 112 | 111 | 117 | 13.2 | 105 | 106 | 115 | 101 | 112 | 110 | 108 | 125 | 108 | 105 | 18.8 |
| O=C(Nc1ccc(F)c(C(F)(F)F)c1)Nc1nnc(-c2ccncc2)s1 | 125 | 121 | 119 | 115 | 129 | 112 | 120 | 115 | 119 | 111 | 100 | 113 | 127 | 125 | 109 | 112 | 114 | 114 | 118 | 113 | 111 | 99.5 | 115 | 121 | 129 | 113 | 123 | 120 | 127 | 115 | 114 | 106 | 113 |
| CC(C)NC[C@@H](C(=O)N1CCN(c2ncnc3c2[C@H](C)C[C@H]3O)CC1)c1ccc(Cl)cc1 | 118 | 120 | 114 | 109 | 100 | 99.5 | 92.8 | 83 | 67 | 48.2 | 28.1 | 109 | 105 | 111 | 107 | 100 | 85.8 | 71.3 | 65.2 | 52.8 | 44.4 | 33.6 | 112 | 109 | 114 | 115 | 103 | 95.3 | 85.2 | 78.1 | 55.5 | 37.2 | 23.5 |
| C/C=C(/C)C(=O)O[C@H]1C(C)=C[C@]23C(=O)[C@@H](C=C(CO)[C@@H](O)[C@]12O)[C@H]1[C@@H](C[C@H]3C)C1(C)C | 111 | 122 | 106 | 99.1 | 96.8 | 90.6 | 87 | 97.2 | 97.3 | 79.7 | 81.4 | 122 | 131 | 99.8 | 87.9 | 79.7 | 79.2 | 82.3 | 82.4 | 78.2 | 77.8 | 74.9 | 116 | 122 | 101 | 94.6 | 89.9 | 81.6 | 79 | 82.6 | 86.7 | 81.1 | 70.6 |
| CSCC[C@@H](NC(=O)[C@@H](Cc1ccccc1)NC(=O)CNC(=O)CNC(=O)[C@@H](N)Cc1ccc(O)cc1)C(=O)O | 84.4 | 96.7 | 105 | 11 | 113 | 102 | 112 | 104 | 105 | 120 | 115 | 82.2 | 91.9 | 101 | 12.6 | 107 | 105 | 104 | 111 | 99.8 | 101 | 102 | 85.1 | 88.1 | 94.1 | 24.3 | 101 | 98.7 | 104 | 101 | 102 | 97.9 | 109 |
| CN1CCN(c2ccc([N+](=O)[O-])c3no[n+]([O-])c23)CC1 | 84.1 | 85.5 | 87.8 | 93.8 | 99 | 91.5 | 94.2 | 90.6 | 95.7 | 95.2 | 82.9 | 86.1 | 92.4 | 93.1 | 89 | 94.7 | 97.7 | 93.2 | 88.1 | 95.4 | 86.6 | 91.3 | 91.9 | 91.9 | 91.2 | 92.1 | 98.8 | 91.8 | 93.6 | 89 | 90.2 | 91.1 | 77.8 |
| C[C@]12CCC(=O)C=C1CC[C@@H]1[C@@H]2CC[C@@]2(C)[C@H]1CC[C@]2(C)O | 105 | 110 | 105 | 91.5 | 104 | 107 | 109 | 104 | 102 | 89.6 | 86.4 | 94.7 | 93.3 | 105 | 79.6 | 104 | 102 | 104 | 94.9 | 97.9 | 92.1 | 79.8 | 94.6 | 101 | 100 | 80.5 | 94.8 | 100 | 91.7 | 106 | 97.5 | 87.7 | 88.1 |
| CNC[C@H](O)c1ccc(O)c(O)c1 | 96.9 | 101 | 94.8 | 94.6 | 102 | 93.9 | 90.2 | 90.9 | 91.7 | 85.7 | 85.8 | 102 | 97.3 | 88.6 | 99.3 | 97.9 | 94.9 | 91.7 | 89.5 | 93.5 | 89.6 | 89.9 | 87.9 | 92.6 | 91 | 87.3 | 90.6 | 92.3 | 81.9 | 85.1 | 82 | 78.9 | 78.2 |
| C[C@@H]\1CC(=O)N\N=C1C2=CC=C(NN=C(C#N)C#N)C=C2 | 91.5 | 92.9 | 94.3 | 94.4 | 95.7 | 92.8 | 93.5 | 87.5 | 91.3 | 86.3 | 29.4 | 88.1 | 93.2 | 92.2 | 89.5 | 93.9 | 92.4 | 96.7 | 91.1 | 93.4 | 81.1 | 15.6 | 81.2 | 85.7 | 88.2 | 92.3 | 92.3 | 90.9 | 91.3 | 80.1 | 83.7 | 72.9 | 12.8 |
| CCC(C)(C)c1ccc(CC(C)CN2C[C@@H](C)O[C@@H](C)C2)cc1 (some centres undefined) | 81.2 | 81.5 | 82.8 | 91.5 | 97.3 | 84.6 | 91.9 | 94.9 | 89 | 87.8 | 91.6 | 88.9 | 81.4 | 88.1 | 87.8 | 89.1 | 82.3 | 93.9 | 85.6 | 90.7 | 86.2 | 88 | 72 | 76.7 | 78.3 | 79.6 | 81.8 | 80.6 | 84 | 81.8 | 85.5 | 76.3 | 75.8 |
| CCN1\C=C(\C(O)=O)C(=O)C2=CC=C(C)N=C12 | 88.3 | 93.8 | 101 | 96.3 | 101 | 93.7 | 105 | 97.6 | 95.7 | 105 | 93.6 | 79.7 | 82.3 | 90 | 90.1 | 84.6 | 89.3 | 89.7 | 90.6 | 88.8 | 98.8 | 97 | 77.2 | 90.6 | 87.1 | 91 | 96 | 88.6 | 86.4 | 87.4 | 91.3 | 92.4 | 90.1 |
| CC(C)C(=O)Oc1ccc(CO)cc1[C@H](CCN(C(C)C)C(C)C)c1ccccc1 | 92 | 87.1 | 89.2 | 85.3 | 90.1 | 99 | 75.7 | 69.3 | 86.2 | 76.8 | 81.8 | 81.1 | 82.5 | 85.6 | 83.4 | 83.2 | 83.9 | 86.1 | 84.9 | 81.5 | 80.7 | 83.4 | 78.9 | 76.3 | 82.9 | 80.1 | 87 | 84.2 | 79.7 | 78.8 | 77.1 | 73.1 | 78.1 |
| COc1ncc(-c2ccc3nccc(-c4ccnnc4)c3c2)cc1N[S+](=O)([O-])c1ccc(F)cc1F | 118 | 115 | 115 | 106 | 101 | 95.6 | 95.3 | 74.8 | 35.8 | 17 | 11.3 | 139 | 111 | 91.1 | 91.4 | 83.3 | 77 | 69.9 | 55.9 | 40 | 17.5 | 8.78 | 131 | 113 | 101 | 97.3 | 89 | 90.3 | 80.5 | 61.3 | 47.5 | 13.6 | 9.07 |

— the supplement of paper PMC11451515
